# Results: patent US5580542A, “Method of testing for nephritis” (Kureha Kagaku Kogyo K.K., priority 1993, dated 1996)
# Where “and” joins values, the source holds several entries; their conditions need not be identical. Equal values may be shown once.
# How the values were obtained:
# [1] = test system: H9c2(2-1); assay: Test 1: acetyltransferase activity, conversion of p-aminobenzoic acid to p-acetamidobenzoic acid in culture (GC-MS); type: cell-based, rat; details: H9c2(2-1) (cardiorhabdium); culture medium after 2 to 3 days
# Protocol: (§1) In this test, the activity of acetyltransferase was evaluated by an in-vitro experiment with respect to p-aminobenzoic acid.
# (§2) The left and right kidneys of 7 weeks-old Sprague-Dawley female rats were excised. After the renal cortices were shredded, mesangial cells were prepared by the Sieving's method. For the sake of comparison, "A7r5" (trade name, derived from fetal thoracic aortic smooth muscle), "Clone 9" (trade name. derived from liver), "H9 c2 (2-1)" (trade name, derived from cardiorhabdium), "IEC-18" (trade name, derived from the small intestine) and "NRK-52E" (trade name, derived from epithelial cells of renal tubule), all products of Flow Corp., U.S.A., were used as cells derived from rats.
# (§3) Using as a culture medium "RPMI-1640" (trade name; product of Flow Corp.; U.S.A.) added with fetal bovine serum (product of GIBCO Corp.) whose concentration was finally 10% in the medium, those cells were cultured in a 5% CO2 incubator. Since the p-amionbenzoic acid contained in RPMI-1640 was converted to p-acetamidobenzoic acid by the above culture, detection was conducted with respect to the p-acetamidobenzoic acid so converted.
# (§4) Namely, 2 ml of each culture medium after the lapse of 2 to 3 days since its culture were subjected to centrifugal ultrafiltration to eliminate proteins. One ml of the filtrate was added with 30 μl of 1N hydrochloric acid to adjust the pH to pH 1. Added next were 10 μg of p-pentylbenzoic acid, as an internal standard, and 0.5 g NaCl. The resulting mixture was shaken three times together with 3 ml portions of ethyl acetate to conduct liquid/liquid extraction of the organic acid component. After the extract was dried under a nitrogen gas stream, 40 μl of N,O-bis(trimethylsilyl)trifluoroacetamide and 10 μl of trimethylchlorosilane were added. The resulting mixture was stirred at 60° C. for 1 hour so that the organic acid component was trimethylsilylated. The trimethylsilylated organic acid component was then detected by gas chromatography mass spectrometry. The activity of acetyltransferase was evaluated by the relative height of a peak corresponding to p-acetamidobenzoic acid. The following evaluation standard was employed:-: smaller than 50,000,+: 50,000 or greater but smaller than 500,000, ++: 500,000 or greater, all in terms of abundance.
# [2] = test system: IEC-18; assay: as above; type: cell-based, rat; details: IEC-18 (small intestine); culture medium after 2 to 3 days
# Protocol: as §1, §2, §3, §4
# [3] = test system: Mesangial cells; assay: as above; type: cell-based, rat
# Protocol: as §1, §2, §3, §4
# [4] = test system: NRK-52E; assay: as above; type: cell-based, rat; details: NRK-52E (epithelial cells of renal tubule); culture medium after 2 to 3 days
# Protocol: as §1, §2, §3, §4
# [5] = test system: Clone 9; assay: as above; type: cell-based, rat; details: Clone 9 (liver); culture medium after 2 to 3 days
# Protocol: as §1, §2, §3, §4
# [6] = test system: A7r5; assay: as above; type: cell-based, rat; details: A7r5 (fetal thoracic aortic smooth muscle); culture medium after 2 to 3 days
# Protocol: as §1, §2, §3, §4
# [7] = Test 4: concentrations of PAH and AcPAH in blood after Na-PAH; type: in vivo, Sprague-Dawley male rats; details: 40 mg Na-PAH single shot jugular vein; serum at 30, 60, 90, 120 minutes
# Protocol: In the test, the rate of secretion of an acetyltransferase activity measuring agent according to this invention into urine was tested.
# An aqueous solution of 40 mg of sodium p-aminohippurate (Na-PAH) in 200 μl of distilled water was administered as a single shot to the jugular vein of each rat under anesthesia with ethyl ether. Upon elapsed time of 30 minutes, 60 minutes, 90 minutes and 120 minutes, the concentrations of PAH and AcPAH in blood were measured by high-performance liquid chromatography. Serum was used in an amount of 50 μl each time. The pretreatment method and analysis conditions were the same as in Test 2.
# [8] = Test 3: time-dependent stability of urinal AcPAH/PAH ratio after Na-PAH; type: in vivo, Sprague-Dawley male rats; details: 40 mg Na-PAH single shot jugular vein, 24 h urine, test repeated 7 times on different days
# Protocol: In this test, an investigation was conducted about the time-dependent stability of test results which were obtained using an acetyltransferase activity measuring agent according to the present invention.
# An aqueous solution of 40 mg of sodium p-aminohippurate (Na-PAH) in 200 μl of distilled water was administered as a single shot to the jugular vein of each rat under anesthesia with ethyl ether. The rat was then immediately placed in metabolism test cage, and urine was collected over 24 hours. The concentrations of AcPAH and PAH in urine were analyzed as in Test 2, whereby the AcPAH/PAH ratio was determined. The above test was repeated 7 times on different days so that its average value, standard deviation (S.D.) and coefficient of variations (C.V.) were determined.
# [9] = Test 2: urinal AcPAH/PAH ratio after Na-PAH in renal arterial ligature rats; type: in vivo, Sprague-Dawley male rats; details: 40 mg Na-PAH single shot jugular vein, 24 h urine; for urinal AcPAH/PAH ratio, individual rats: day 37 after operation
# Protocol: In this test, an investigation was conducted about the relationship, if any, between the degree of ligature of the renal artery, which serves as an index for the degree of progress of the pathema of a kidney disease, and the concentration ratio of p-acetyl-aminohippuric acid (AcPAH) to p-aminohippuric acid (PAH) in urine.
# Depending on whether the renal arterial carina ligating method was applied and if so, how tight the ligating method as applied, the rats were divided into three groups, each consisting of three of the rats, that is, a sham-operation group (i.e., control), a 1/2 renal arterial ligature group (only one kidney was functioning) and a 5/6 renal arterial ligature group. On the 37th day after the operation, an aqueous solution of 40 mg of sodium p-aminohippurate (Na-PAH) in 200 μl of distilled water was administered as a single shot to the jugular vein of each rat under anesthesia with ethyl ether. The rat was then immediately placed in metabolism test cage, and urine was collected over 24 hours. The concentrations of AcPAH and PAH in urine were analyzed by high-performanceliquid chromatography in a manner to be described subsequently herein, whereby the ratio of AcPAH to PAH (AcPAH/PAH) was determined.
# Namely, 150 μl of methanol, which contained 1 μg of vanillic acid as an internal standard substance, were added to 50 μl of fivefold dilute urine. After the resulting mixture was stirred and centrifuged, the supernatant was collected and was subjected to filtration by centrifugation. By high-performance liquid chromatography, 10 μl of the supernant so obtained were quantitatively analyzed under the following analysis conditions:
# Column: "Unisil Pack 250B" (trade name, product of GL Science Inc.)
# Mobile phase: water/acetic acid/acetonitrile=93.5/0.5/6 (pH 3, approximately)
# Column oven temperature: 40° C.
# [10] = 1/2 Renal arterial ligature group (n = 3)
# [11] = 5/6 Renal arterial ligature group (n = 3)
compound,measurement,setting,value
Nc1ccc(C(=O)O)cc1 [p-aminobenzoic acid],Evaluation results: activity of acetyltransferase by relative height of peak corresponding to p-acetamidobenzoic acid,[1],"- (smaller than 50,000)"
same,Evaluation results: activity of acetyltransferase by relative height of peak corresponding to p-acetamidobenzoic acid,[2],"- (smaller than 50,000)"
same,N-acetyltransferase activity to p-aminobenzoic acid (in words),[3]; Mesangial cells,confirmed to have N-acetyltransferase activity
same,Evaluation results: activity of acetyltransferase by relative height of peak corresponding to p-acetamidobenzoic acid,"[3]; Mesangial cells from rat renal cortex, culture medium after 2 to 3 days","++ (500,000 or greater)"
same,Evaluation results: activity of acetyltransferase by relative height of peak corresponding to p-acetamidobenzoic acid,[4],"- (smaller than 50,000)"
same,Evaluation results: activity of acetyltransferase by relative height of peak corresponding to p-acetamidobenzoic acid,[5],"- (smaller than 50,000)"
same,Evaluation results: activity of acetyltransferase by relative height of peak corresponding to p-acetamidobenzoic acid,[6],"- (smaller than 50,000)"
"Nc1ccc(C(=O)NCC(=O)O)cc1 [PAH, p-aminohippuric acid]","elimination of PAH from blood (concentration in blood versus time, FIG. 1)",[7],substantially eliminated from blood in 120 minutes after the administration
Nc1ccc(C(=O)NCC(=O)[O-])cc1.[Na+],"Urinal AcPAH/PAH, Ave.",[8]; Rat #1,0.125
same,"Urinal AcPAH/PAH, Ave.",[8]; Rat #2,0.100
same,"Urinal AcPAH/PAH, Ave.",[8]; Rat #3,0.131
same,"urinal AcPAH/PAH ratio, Ave.",[9]; [10],0.146
same,"urinal AcPAH/PAH ratio, individual rats",[9]; [10],0.144 and 0.153 and 0.141
same,"urinal AcPAH/PAH ratio, Ave.",[9]; [11],0.250
same,"urinal AcPAH/PAH ratio, individual rats",[9]; [11],0.236 and 0.242 and 0.272
same,"urinal AcPAH/PAH ratio, Ave.",[9]; Sham-operation group (n = 3),0.125
same,"urinal AcPAH/PAH ratio, individual rats",[9]; Sham-operation group (n = 3),0.132 and 0.121 and 0.123
"CC(=O)Nc1ccc(C(=O)NCC(=O)O)cc1 [AcPAH, p-acetyl-aminohippuric acid]",concentration of metabolite AcPAH in blood versus time (FIG. 2),[7],becomes low in concentration in 120 minutes after the administration
